Assay results published in US9359358B2, “Cyclohexyl azetidine derivatives as JAK inhibitors” (Incyte Holdings Corporation, priority 2011, dated 2016).
Structures can show the parent of a compound that is named as a salt.

What was measured:
[1] = biological target: T1, human JAK1 (Homo sapiens, UniProt P23458); test: In Vitro JAK Kinase Assay (HTRF, phosphorylation of a biotinylated peptide), JAK1; format: biochemical; conditions: catalytic domain a.a. 837-1142, assay of Example A
T1 construct: human JAK1 (a.a. 837-1142); His tag (N); made in house; host or cells: insect cells (baculovirus)
Summary of the method: (§1)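 HTRF detection (SA-APC plus Eu-labeled anti-phosphotyrosine Py20, 40 min after EDTA stop) quantified biotinylated-peptide phosphorylation. Kinase reactions with human JAK1 or JAK2 catalytic domains lasted 1 h at room temperature.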

[2] = biological target: T2, human JAK2 (Homo sapiens, UniProt O60674); test: In Vitro JAK Kinase Assay (HTRF, phosphorylation of a biotinylated peptide), JAK2; format: biochemical; conditions: assay of Example A
T2 construct: JAK2 (a.a. 828-1132); His tag (N); made in house; host or cells: insect cells (baculovirus)
Summary of the method: as §1

T1 sequence (P23458 849-1154): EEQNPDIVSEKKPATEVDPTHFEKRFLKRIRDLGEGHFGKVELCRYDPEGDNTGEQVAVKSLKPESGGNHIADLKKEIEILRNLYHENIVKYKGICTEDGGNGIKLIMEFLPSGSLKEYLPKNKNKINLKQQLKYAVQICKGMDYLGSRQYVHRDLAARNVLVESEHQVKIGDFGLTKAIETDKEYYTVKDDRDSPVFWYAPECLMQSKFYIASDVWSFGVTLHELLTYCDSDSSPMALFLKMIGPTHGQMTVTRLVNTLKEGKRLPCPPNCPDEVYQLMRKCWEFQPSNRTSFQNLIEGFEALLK
T2 sequence (O60674 828-1132): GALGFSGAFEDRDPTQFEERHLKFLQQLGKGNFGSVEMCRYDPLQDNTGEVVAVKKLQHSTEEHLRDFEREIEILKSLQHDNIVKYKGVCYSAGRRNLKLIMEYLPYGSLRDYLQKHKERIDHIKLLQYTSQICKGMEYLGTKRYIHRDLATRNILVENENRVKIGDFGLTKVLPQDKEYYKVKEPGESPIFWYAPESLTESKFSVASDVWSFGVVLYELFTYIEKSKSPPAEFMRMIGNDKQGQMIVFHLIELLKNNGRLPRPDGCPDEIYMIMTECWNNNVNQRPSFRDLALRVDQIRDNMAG

SMILES	IC50 ([1]; Table 5)	JAK2/JAK1 IC50 ratio ([2]; Table 5)	IC50 ([1]; Table 4)	JAK2/JAK1 IC50 ratio ([2]; Table 4)
N#CCC1(n2cc(-c3ncnc4[nH]ccc34)cn2)CN([C@H]2CC[C@@H](Oc3cc(CNC[C@@H]4CCCO4)nc(C(F)(F)F)n3)CC2)C1 [Example 27, [3-[4-(7H-pyrrolo[2,3-d]pyrimidin-4-yl)-1H-pyrazol-1-yl]-1-(cis-4-{[6-({[(2S)-tetrahydrofuran-2-ylmethyl]amino}methyl)-2-(trifluoromethyl)pyrimidin-4-yl]oxy}cyclohexyl)azetidin-3-yl]acetonitrile tris(trifluoroacetate)]			< 10 nM	≧10
N#CCC1(n2cc(-c3ncnc4[nH]ccc34)cn2)CN([C@H]2CC[C@@H](Oc3cc(CNC4CCC4)nc(C(F)(F)F)n3)CC2)C1.O=C(O)C(F)(F)F.O=C(O)C(F)(F)F.O=C(O)C(F)(F)F [Example 10, {1-(cis-4-{[6-[(cyclobutylamino)methyl]-2-(trifluoromethyl)pyrimidin-4-yl]oxy}cyclohexyl)-3-[4-(7H-pyrrolo[2,3-d]pyrimidin-4-yl)-1H-pyrazol-1-yl]azetidin-3-yl}acetonitrile tris(trifluoroacetate)]			< 10 nM	≧10
CC(C)(CO)NCc1cc(O[C@H]2CC[C@@H](N3CC(CC#N)(n4cc(-c5ncnc6[nH]ccc56)cn4)C3)CC2)nc(C(F)(F)F)n1.O=C(O)C(F)(F)F.O=C(O)C(F)(F)F.O=C(O)C(F)(F)F.O=C(O)C(F)(F)F [Example 52, {1-(cis-4-{[6-{[(2-hydroxy-1,1-dimethylethyl)amino]methyl}-2-(trifluoromethyl)pyrimidin-4-yl]oxy}cyclohexyl)-3-[4-(7H-pyrrolo[2,3-d]pyrimidin-4-yl)-1H-pyrazol-1-yl]azetidin-3-yl}acetonitrile tetrakis(trifluoroacetate) (salt)]			< 10 nM	≧10
CC(C)(F)c1cc(O[C@H]2CC[C@@H](N3CC(CC#N)(n4cc(-c5ncnc6[nH]ccc56)cn4)C3)CC2)nc(C(F)(F)F)n1.O=C(O)C(F)(F)F.O=C(O)C(F)(F)F [Example 61, {1-(cis-4-{[6-(1-fluoro-1-methylethyl)-2-(trifluoromethyl)pyrimidin-4-yl]oxy}cyclohexyl)-3-[4-(7H-pyrrolo[2,3-d]pyrimidin-4-yl)-1H-pyrazol-1-yl]azetidin-3-yl}acetonitrile bis(trifluoroacetate)]			< 10 nM	≧10
N#CCC1(n2cc(-c3ncnc4[nH]ccc34)cn2)CN([C@H]2CC[C@@H](Oc3cc(CNCCO)nc(C(F)(F)F)n3)CC2)C1 [Example 11, {1-(cis-4-{[6-{[(2-hydroxyethyl)amino]methyl}-2-(trifluoromethyl)pyrimidin-4-yl]oxy}cyclohexyl)-3-[4-(7H-pyrrolo[2,3-d]pyrimidin-4-yl)-1H-pyrazol-1-yl]azetidin-3-yl}acetonitrile tris(trifluoroacetate) (salt)]			< 10 nM	≧10
N#CCC1(n2cc(-c3ncnc4[nH]ccc34)cn2)CN([C@H]2CC[C@@H](Oc3cc(CN4CC[C@H](O)C4)cc(C(F)(F)F)n3)CC2)C1 [Example 96, {1-(cis-4-{[4-{[(3S)-3-hydroxypyrrolidin-1-yl]methyl}-6-(trifluoromethyl)pyridin-2-yl]oxy}cyclohexyl)-3-[4-(7H-pyrrolo[2,3-d]pyrimidin-4-yl)-1H-pyrazol-1-yl]azetidin-3-yl}acetonitrile tris(trifluoroacetate)]	< 10 nM	≧10		

Second part, the compound after the results:

IC50 ([1]; Table 5)	JAK2/JAK1 IC50 ratio ([2]; Table 5)	IC50 ([1]; Table 4)	JAK2/JAK1 IC50 ratio ([2]; Table 4)	SMILES
< 10 nM	≧10			N#CCC1(n2cc(-c3ncnc4[nH]ccc34)cn2)CN([C@H]2CC[C@@H](Oc3cc(Cn4cccn4)cc(C(F)(F)F)n3)CC2)C1 [Example 100, {1-(cis-4-{[4-(1H-pyrazol-1-ylmethyl)-6-(trifluoromethyl)pyridin-2-yl]oxy}cyclohexyl)-3-[4-(7H-pyrrolo[2,3-d]pyrimidin-4-yl)-1H-pyrazol-1-yl]azetidin-3-yl}acetonitrile tris(trifluoroacetate)]
< 10 nM	≧10			CN(C(=O)c1cc(O[C@H]2CC[C@@H](N3CC(CC#N)(n4cc(-c5ncnc6[nH]ccc56)cn4)C3)CC2)nc(C(F)(F)F)c1)C1CC1 [Example 87, 2-[(cis-4-{3-(cyanomethyl)-3-[4-(7H-pyrrolo[2,3-d]pyrimidin-4-yl)-1H-pyrazol-1-yl]azetidin-1-yl}cyclohexyl)oxy]-N-cyclopropyl-N-methyl-6-(trifluoromethyl)isonicotinamide bis(trifluoroacetate)]
< 10 nM	≧10			N#CCC1(n2cc(-c3ncnc4[nH]ccc34)cn2)CN([C@H]2CC[C@@H](Oc3cc(Cn4ccnc4)cc(C(F)(F)F)n3)CC2)C1 [Example 99, {1-(cis-4-{[4-(1H-imidazol-1-ylmethyl)-6-(trifluoromethyl)pyridin-2-yl]oxy}cyclohexyl)-3-[4-(7H-pyrrolo[2,3-d]pyrimidin-4-yl)-1H-pyrazol-1-yl]azetidin-3-yl}acetonitrile tetrakis(trifluoroacetate)]
< 10 nM	≧10			CCNCc1cc(O[C@H]2CC[C@@H](N3CC(CC#N)(n4cc(-c5ncnc6[nH]ccc56)cn4)C3)CC2)nc(C(F)(F)F)c1 [Example 65, {1-(cis-4-{[4-[(ethylamino)methyl]-6-(trifluoromethyl)pyridin-2-yl]oxy}cyclohexyl)-3-[4-(7H-pyrrolo[2,3-d]pyrimidin-4-yl)-1H-pyrazol-1-yl]azetidin-3-yl}acetonitrile tris(trifluoroacetate)]
		< 10 nM	≧10	CC(CO)c1cc(OC2CCC(N3CC(CC#N)(n4cc(-c5ncnc6[nH]ccc56)cn4)C3)CC2)nc(C(F)(F)F)n1 (single isomer, unassigned) [Example 59a, {1-(cis-4-{[6-(2-hydroxy-1-methylethyl)-2-(trifluoromethyl)pyrimidin-4-yl]oxy}cyclohexyl)-3-[4-(7H-pyrrolo[2,3-d]pyrimidin-4-yl)-1H-pyrazol-1-yl]azetidin-3-yl}acetonitrile bis(trifluoroacetate) (salt)]
< 10 nM	≧10			CC1(NCc2cc(O[C@H]3CC[C@@H](N4CC(CC#N)(n5cc(-c6ncnc7[nH]ccc67)cn5)C4)CC3)nc(C(F)(F)F)c2)COC1 [Example 98, {1-(cis-4-{[4-{[(3-methyloxetan-3-yl)amino]methyl}-6-(trifluoromethyl)pyridin-2-yl]oxy}cyclohexyl)-3-[4-(7H-pyrrolo[2,3-d]pyrimidin-4-yl)-1H-pyrazol-1-yl]azetidin-3-yl}acetonitrile tetrakis(trifluoroacetate)]
		< 10 nM	≧10	CC(CO)c1cc(OC2CCC(N3CC(CC#N)(n4cc(-c5ncnc6[nH]ccc56)cn4)C3)CC2)nc(C(F)(F)F)n1 (single isomer, unassigned) [Example 59, {1-(cis-4-{[6-(2-hydroxy-1-methylethyl)-2-(trifluoromethyl)pyrimidin-4-yl]oxy}cyclohexyl)-3-[4-(7H-pyrrolo[2,3-d]pyrimidin-4-yl)-1H-pyrazol-1-yl]azetidin-3-yl}acetonitrile bis(trifluoroacetate) (salt)]
